From the NIST ThermoML archive (doi:10.1021/je800636k)
± gives the expanded uncertainty stated by the source.

Experiment: xn = mol fraction of the nth substance listed
Conditions: 101 kPa, Liquid; for electrical conductivity: Qcond 2400 VWR international / cell constant, 1.05; for viscosity: Concentric cylinders viscometry; for mass density: Vibrating tube method

CCCCn1cc[n+](C)c1C.[N-]=[N+]=[N-] [1-butyl-2,3-dimethylimidazolium azide] + CCCCn1cc[n+](C)c1C.F[B-](F)(F)F
Conditions | electrical conductivity [S/m] | mass density [kg/m3] | viscosity [mPa·s]
303.15 K, x1 = 0.25 | 0.0809 ± 0.0032 | – | –
303.15 K, x1 = 0.5 | 0.0608 ± 0.0024 | – | –
303.15 K, x1 = 0.75 | 0.0604 ± 0.0024 | – | –
303.15 K, x1 = 1 | 0.0488 ± 0.0019 | – | –
308.15 K, x1 = 0.25 | 0.114 ± 0.0046 | – | –
308.15 K, x1 = 0.5 | 0.0887 ± 0.0036 | – | –
308.15 K, x1 = 0.75 | 0.0881 ± 0.0035 | – | –
308.15 K, x1 = 1 | 0.0756 ± 0.003 | – | –
313.15 K, x1 = 0.25 | 0.156 ± 0.0062 | 1154.97 ± 2.6 | 210.46 ± 5.5
313.15 K, x1 = 0.5 | 0.125 ± 0.005 | 1129.46 ± 2.5 | 292.06 ± 8.3
313.15 K, x1 = 0.75 | 0.124 ± 0.005 | 1098.68 ± 2.3 | 353.89 ± 11
313.15 K, x1 = 1 | 0.112 ± 0.0045 | 1070.46 ± 2.2 | 338.19 ± 10
318.15 K, x1 = 0.25 | 0.208 ± 0.0083 | – | –
318.15 K, x1 = 0.5 | 0.172 ± 0.0069 | – | –
318.15 K, x1 = 0.75 | 0.171 ± 0.0068 | – | –
318.15 K, x1 = 1 | 0.159 ± 0.0064 | – | –
323.15 K, x1 = 0.25 | 0.271 ± 0.011 | 1148.74 ± 2.5 | 115.24 ± 2.4
323.15 K, x1 = 0.5 | 0.23 ± 0.0092 | 1123.48 ± 2.4 | 156.81 ± 3.6
323.15 K, x1 = 0.75 | 0.228 ± 0.0091 | 1092.32 ± 2.3 | 183.02 ± 4.4
323.15 K, x1 = 1 | 0.219 ± 0.0088 | 1065.14 ± 2.2 | 176.04 ± 4.2
328.15 K, x1 = 0.25 | 0.345 ± 0.014 | – | –
328.15 K, x1 = 0.5 | 0.302 ± 0.012 | – | –
328.15 K, x1 = 0.75 | 0.299 ± 0.012 | – | –
328.15 K, x1 = 1 | 0.294 ± 0.012 | – | –
333.15 K, x1 = 0.25 | 0.433 ± 0.017 | 1142.5 ± 2.5 | 68.72 ± 1.2
333.15 K, x1 = 0.5 | 0.388 ± 0.015 | 1117.5 ± 2.4 | 92.5 ± 1.8
333.15 K, x1 = 0.75 | 0.383 ± 0.015 | 1085.96 ± 2.3 | 105.08 ± 2.1
333.15 K, x1 = 1 | 0.383 ± 0.015 | 1059.83 ± 2.2 | 101.63 ± 2
338.15 K, x1 = 0.25 | 0.535 ± 0.021 | – | –
338.15 K, x1 = 0.5 | 0.489 ± 0.02 | – | –
338.15 K, x1 = 0.75 | 0.483 ± 0.019 | – | –
338.15 K, x1 = 1 | 0.49 ± 0.02 | – | –
343.15 K, x1 = 0.25 | 0.651 ± 0.026 | 1136.27 ± 2.5 | 43.88 ± 0.76
343.15 K, x1 = 0.5 | 0.608 ± 0.024 | 1111.52 ± 2.4 | 58.77 ± 1
343.15 K, x1 = 0.75 | 0.599 ± 0.024 | 1079.6 ± 2.3 | 65.45 ± 1.1
343.15 K, x1 = 1 | 0.614 ± 0.025 | 1054.52 ± 2.2 | 63.6 ± 1.1
348.15 K, x1 = 0.25 | 0.783 ± 0.031 | – | –
348.15 K, x1 = 0.5 | 0.744 ± 0.03 | – | –
348.15 K, x1 = 0.75 | 0.733 ± 0.029 | – | –
348.15 K, x1 = 1 | 0.756 ± 0.03 | – | –
353.15 K, x1 = 0.25 | 0.929 ± 0.037 | 1130.03 ± 2.5 | 29.62 ± 0.51
353.15 K, x1 = 0.5 | 0.899 ± 0.036 | 1105.54 ± 2.4 | 39.64 ± 0.68
353.15 K, x1 = 0.75 | 0.885 ± 0.035 | 1073.24 ± 2.2 | 43.5 ± 0.75
353.15 K, x1 = 1 | 0.918 ± 0.037 | 1049.21 ± 2.1 | 42.44 ± 0.73
358.15 K, x1 = 0.25 | 1.09 ± 0.044 | – | –
358.15 K, x1 = 0.5 | 1.07 ± 0.043 | – | –
358.15 K, x1 = 0.75 | 1.06 ± 0.042 | – | –
358.15 K, x1 = 1 | 1.1 ± 0.044 | – | –
363.15 K, x1 = 0.25 | 1.27 ± 0.051 | 1123.8 ± 2.4 | 20.94 ± 0.36
363.15 K, x1 = 0.5 | 1.27 ± 0.051 | 1099.56 ± 2.3 | 28.06 ± 0.48
363.15 K, x1 = 0.75 | 1.25 ± 0.05 | 1066.87 ± 2.2 | 30.46 ± 0.52
363.15 K, x1 = 1 | 1.3 ± 0.052 | 1043.9 ± 2.1 | 29.82 ± 0.51
368.15 K, x1 = 0.25 | 1.47 ± 0.059 | – | –
368.15 K, x1 = 0.5 | 1.49 ± 0.059 | – | –
368.15 K, x1 = 0.75 | 1.46 ± 0.058 | – | –
368.15 K, x1 = 1 | 1.52 ± 0.061 | – | –
373.15 K, x1 = 0.25 | – | 1117.56 ± 2.4 | 15.38 ± 0.26
373.15 K, x1 = 0.5 | – | 1093.58 ± 2.3 | 20.68 ± 0.36
373.15 K, x1 = 0.75 | – | 1060.51 ± 2.2 | 22.27 ± 0.38
373.15 K, x1 = 1 | – | 1038.59 ± 2.1 | 21.87 ± 0.38
